Data on 19 compounds can be found in ChEMBL document CHEMBL1201862, “PubChem BioAssay data set” (2004).

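All cell lines were grown in 96-well plates and treated with compound for 48 hours. GI50 is the concentration that inhibits growth by half.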 Activity calls are given as the source filed them. Rule as the data show it: active = GI50 up to about 1.1 µM and inactive = higher.

Test systems include DLD-1; DMS-273; KM-20L2; M19-MEL; RXF 631; SNB-78; XF498; DMS-114; HOP-18.
Experiment in all cases: NCI anticancer screen, dose series, 48 h

Turning to `CC1(C)CC(/C=C2/OC(=O)c3ccccc32)=C(C#N)C(=O)O1`, the GI50 with DLD-1, in the experiment on DMS-273, in the experiment on KM-20L2, in the experiment with M19-MEL, with RXF 631 and in the experiment with SNB-78 was > 100 µM (inactive) throughout. In addition, the GI50 in the experiment with XF498 was > 100 µM (inactive).
Take `Cc1ccc(CC(C)N)cc1` (configuration not stated): the GI50 in the experiment on DLD-1, in the experiment with DMS-114, in the experiment with DMS-273, in the experiment on HOP-18, in the experiment with KM-20L2 and in the experiment on RXF 631 was > 100 µM (inactive) each time. In the experiment with SNB-78, the GI50 was > 100 µM (inactive).
On to `O=[N+]([O-])c1ccc(C2=Nn3c(nnc3-c3ccc(Cl)cc3)SC2)o1`, for which the GI50 in the experiment on DLD-1 was 2.06 µM (inactive); with DMS-114 it was 4.11 µM (inactive); in the experiment on DMS-273, 14 µM (inactive); in the experiment with HOP-18 it was 19.2 µM (inactive); in the experiment with KM-20L2, 5.94 µM (inactive); with M19-MEL, 2.78 µM (inactive). Moreover, the GI50 in the experiment on RXF 631 was 10.9 µM (inactive); with SNB-78, 15.8 µM (inactive); with XF498 it was 14.3 µM (inactive).
Consider `CN(Cc1ccccc1)C1(N(C)Cc2ccccc2)CC1`, for which the GI50 with DLD-1, in the experiment with DMS-114, in the experiment on DMS-273, with HOP-18, with KM-20L2 and in the experiment on M19-MEL was > 100 µM (inactive) in each case. The GI50 in the experiment with SNB-78 and in the experiment with XF498 was > 100 µM (inactive) each time.
With `CC/C(CC(=O)CCC(=O)Nc1ccccc1[N+](=O)[O-])=N/NC(=O)C[n+]1ccccc1`, the GI50 in the experiment with DMS-273, in the experiment on HOP-18, in the experiment on KM-20L2, in the experiment on M19-MEL, in the experiment with RXF 631 and with SNB-78 was > 100 µM (inactive) each time.
Turning to `COc1cc2c(c(O)c1C)C(=O)CC(c1ccccc1)O2` (configuration not stated), the GI50 in the experiment on DLD-1 is 55.2 µM (inactive); with DMS-114, 50.7 µM (inactive); with HOP-18, 61 µM (inactive); with KM-20L2, 15.1 µM (inactive); with M19-MEL, 45.8 µM (inactive); in the experiment on RXF 631, 41.4 µM (inactive). For the same compound, the GI50 with SNB-78 was 55.7 µM (inactive).
For the compound `CC(C)(C)c1cc([Si](C)(C)C)c(C#N)c([Si](C)(C)C)c1`, the GI50 in the experiment with DLD-1 is > 100 µM (inactive); in the experiment on DMS-114 it was 33.8 µM (inactive); in the experiment with DMS-273 it was 49.1 µM (inactive); in the experiment with HOP-18 it was > 100 µM (inactive); in the experiment on KM-20L2, > 100 µM (inactive); with M19-MEL, 43.2 µM (inactive). For the same compound, the GI50 in the experiment on SNB-78 is 53.2 µM (inactive); with XF498 it was 24.2 µM (inactive).
Take `CC1=CP(=O)(OC(C)C)C=C(C)C1=C(Cl)Cl` (configuration not stated): the GI50 is > 100 µM (inactive) with DLD-1; 50.1 µM (inactive) in the experiment with DMS-114; 44.7 µM (inactive) with DMS-273; > 100 µM (inactive) with HOP-18; 39.1 µM (inactive) in the experiment on KM-20L2; 38.4 µM (inactive) with M19-MEL. Further, the GI50 was 11.8 µM (inactive) in the experiment with RXF 631 and > 100 µM (inactive) in the experiment with XF498.
For the compound `[O-][Cl+3]([O-])([O-])[O-].c1ccc(-c2[o+]c(-c3ccccc3)c(-c3ccccc3)c(-c3ccccc3)c2-c2ccccc2)cc1`, the GI50 in the experiment with DLD-1, with DMS-273, with HOP-18, in the experiment with KM-20L2, in the experiment on M19-MEL and in the experiment on RXF 631 was > 100 µM (inactive) in each case. In the experiment on SNB-78, the GI50 is > 100 µM (inactive).
Take `CN(C)C(=S)/N=c1\ssc(=S)n1Cc1ccccc1`: the GI50 in the experiment on DLD-1 is 0.348 µM (active); with DMS-114, 0.201 µM (active); in the experiment on DMS-273, 0.25 µM (active); in the experiment on HOP-18, 2.22 µM (inactive); in the experiment with KM-20L2, 0.195 µM (active); with M19-MEL, 0.318 µM (active). The GI50 was 0.8 µM (active) in the experiment with SNB-78 and 0.21 µM (active) with XF498.
Consider `O=C(O)C1=C(Cl)c2ccccc2S1(=O)=O`, for which the GI50 in the experiment with DLD-1, with DMS-114, with KM-20L2, with M19-MEL, with RXF 631 and in the experiment on SNB-78 was > 100 µM (inactive) throughout. For the same compound, the GI50 in the experiment on XF498 was > 100 µM (inactive).
Regarding `C=CC/N=C1\N=C(C)C(C(=O)OCC)S1` (configuration not stated), the GI50 with DLD-1, in the experiment with DMS-114, in the experiment on DMS-273, in the experiment with HOP-18, in the experiment with KM-20L2 and in the experiment with RXF 631 was > 100 µM (inactive) each time. For the same compound, the GI50 with SNB-78 and in the experiment with XF498 was > 100 µM (inactive) each time.
Turning to `COC12C=CC(CC1)c1c(O)ccc(O)c12` (configuration not stated), the GI50 in the experiment with DLD-1 was 50.4 µM (inactive); in the experiment on DMS-114 it was 47.1 µM (inactive); with DMS-273, 46 µM (inactive); in the experiment on HOP-18, > 100 µM (inactive); in the experiment with KM-20L2, 82.8 µM (inactive); with M19-MEL, 22.5 µM (inactive). Moreover, the GI50 was 49.2 µM (inactive) with SNB-78 and 19.7 µM (inactive) in the experiment on XF498.
Consider `CC(C)(c1ccc(Oc2ccc(C#N)c(C#N)c2)cc1)c1ccc(Oc2ccc(C#N)c(C#N)c2)cc1`, for which the GI50 in the experiment with DLD-1, with DMS-114, with HOP-18, with KM-20L2, in the experiment with M19-MEL and in the experiment on RXF 631 was > 10 µM (inactive) throughout. In addition, the GI50 with SNB-78 and in the experiment on XF498 was > 10 µM (inactive) in each case.
For `CN(C(=O)c1ccc([N+](=O)[O-])cc1)c1ccccc1`, the GI50 in the experiment with DLD-1 is > 100 µM (inactive); in the experiment on DMS-114, > 10 µM (inactive); in the experiment on DMS-273, > 100 µM (inactive); with HOP-18, > 100 µM (inactive); with KM-20L2 it was > 100 µM (inactive); with M19-MEL, > 100 µM (inactive). In addition, the GI50 in the experiment with RXF 631, in the experiment with SNB-78 and in the experiment with XF498 was > 100 µM (inactive) each time.
As to `C[Si]1(C)C(c2ccccc2)=CC2C(c3ccccc3)(c3ccccc3)OC21c1ccccc1` (configuration not stated), the GI50 with DLD-1 was > 100 µM (inactive); with DMS-114, 97.9 µM (inactive); in the experiment on DMS-273, > 100 µM (inactive); in the experiment on HOP-18, > 100 µM (inactive); with KM-20L2 it was 92.9 µM (inactive); in the experiment on M19-MEL, > 100 µM (inactive). In addition, the GI50 with RXF 631 and in the experiment on XF498 was > 100 µM (inactive) throughout.
For `COc1ccc2nc3ccccc3c(NCCCCCCN(CCCl)CCCl)c2c1`, the GI50 in the experiment on DLD-1 is 0.109 µM (active); with DMS-114, 0.155 µM (active); with DMS-273, 0.0328 µM (active); in the experiment on KM-20L2, 0.0776 µM (active); in the experiment on M19-MEL, 0.132 µM (active); in the experiment on RXF 631 it was 0.104 µM (active). For the same compound, the results for the GI50 in the experiment on SNB-78 and in the experiment on XF498 were 0.223 µM (active) and 0.136 µM (active), respectively.
For `CC(=O)Oc1cc(OC(C)=O)c(OC(C)=O)c2c1CC1C(=O)C3(CCc4ccccc43)C(=O)C1C2` (configuration not stated), the GI50 in the experiment on DLD-1 was 14.2 µM (inactive); in the experiment on DMS-114 it was 11.7 µM (inactive); in the experiment with DMS-273, 18.1 µM (inactive); with HOP-18, 28.5 µM (inactive); in the experiment on KM-20L2 it was 22.8 µM (inactive); with M19-MEL, 15.7 µM (inactive). In addition, the GI50 is 23.1 µM (inactive) in the experiment with SNB-78 and 14.7 µM (inactive) in the experiment with XF498.
On to `O=C1C=C(Nc2cc(Cl)ccc2Cl)c2ccccc2C1=O`, for which the GI50 is 45.3 µM (inactive) in the experiment on DLD-1; 25.5 µM (inactive) in the experiment on DMS-114; 21.3 µM (inactive) with DMS-273; 22.6 µM (inactive) in the experiment on HOP-18; > 100 µM (inactive) in the experiment with KM-20L2; 15.7 µM (inactive) in the experiment with M19-MEL. Besides, the GI50 with RXF 631 and in the experiment with SNB-78 was > 100 µM (inactive) throughout.
